The values that follow come from US11129389B2, “Gluten-free grain-concentrate substitute for fermented wheat germ food product and method of preparation” (priority 2013, dated 2021).

This assay can be described thus: In vivo experiments: activity level after removal of a component. To be noted: named component removed from product. The source says: The basis for the disclosure that 2-6 methoxy substituted benzoquinones is not an active component of the present invention is vivo experiments.
For 2-6 methoxy substituted benzoquinones, the “activity level of the present invention when the component was removed” value (shortened to “activity level of the present invention”) was “remained unchanged”. `COc1cc(O)cc(OC)c1O` [a, 2,6-dimethoxy-1,4-hydroquinone]: the “activity level of the present invention” value is “decreased”. Regarding `COC1=CC(=O)C=CC1=O` [b, monomethoxy-1,4-benzoquinone], the “activity level of the present invention” value is recorded as “decreased”. Turning to `COc1cc(O)ccc1O` [c, monomethoxy-1,4-hydroquinone], the “activity level of the present invention” value was “decreased”.
